From article PMC6017046, “Synergistic Promotion on Tyrosinase Inhibition by Antioxidants” (Molecules : A Journal of Synthetic Chemistry and Natural …, 2018)

Legend:
[1] = DPPH free radical-scavenging capacity assay; conditions: 0.1 mmol/L DPPH, 30 min, absorbance 517 nm; read-out: IC50 of antioxidant solutions (DPPH scavenging / DPPH clearance rate)
Description: The DPPH free radical-scavenging capacity of the samples are determined according to the method of a previous study with slight modifications. Samples (100l) of various concentrations are added to 100 µL of 0.1 mmol/L DPPH solution in methanol at room temperature. After 30 min, the absorbance is measured at 517 nm with a UV-visible spectrophotometer (MAPADA UV-6100PCS, Shanghai, China). The percentage of free radical (DPPH) scavenging activity (I%) is calculated according to following formula: I%=ODck−ODsample/ODck×100 where ODck is the absorbance of the control reaction, which involves all the reagents except the test compound, and ODsample is the absorbance of the test compound.

Mushroom tyrosinase [2] = target: T1, Mushroom tyrosinase (Agaricus bisporus, UniProt C7FF04); conditions: ref 1 (GLA), ref 25 (OXYR), ref 26 (RES); cited from earlier work
T1 sequence (C7FF04 1-392): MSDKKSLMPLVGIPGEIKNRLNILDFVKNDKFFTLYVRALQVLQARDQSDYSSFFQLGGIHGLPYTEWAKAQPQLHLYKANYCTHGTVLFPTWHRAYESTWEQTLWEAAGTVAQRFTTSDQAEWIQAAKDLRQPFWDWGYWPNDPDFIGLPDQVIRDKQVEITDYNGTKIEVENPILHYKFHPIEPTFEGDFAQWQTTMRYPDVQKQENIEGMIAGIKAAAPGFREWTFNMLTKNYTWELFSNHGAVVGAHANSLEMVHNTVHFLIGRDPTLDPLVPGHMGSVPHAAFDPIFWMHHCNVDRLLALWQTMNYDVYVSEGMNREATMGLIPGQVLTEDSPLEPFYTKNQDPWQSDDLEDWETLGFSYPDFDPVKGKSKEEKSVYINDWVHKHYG

Mushroom tyrosinase [3] = target: T1, Mushroom tyrosinase; assay: Mushroom tyrosinase inhibitory assay, L-tyrosine as substrate; format: biochemical
Description: Inhibitory activity against tyrosinase is examined through an improved spectrophotometric method using L-DOPA and L-tyrosine as substrates. […] The reaction mixture is incubated at 37 °C for 15 min. Mushroom tyrosinase (40 µL, 200 units/mL) is added to the reaction mixture and incubated at 30 °C for 20 min.
(§1) Dopachrome formation is monitored at 475 nm with a UV-visible spectrophotometer (MAPADA UV-6100PCS). The rate of the inhibition of tyrosinase activity (I%) is determined according to the following formula: I%=(A2−A1)−(B2−B1)/(A2−A1)×100 where A1 and A2 are the absorbance values of the blank at 475 nm at 0 min and 20 min, respectively, and B1 and B2 is the absorbance levels of the test sample at 475 nm at 0 min and 20 min, respectively.
The 50% inhibition concentration (IC50) value is determined with SPSS 17.0 statistical software (International Business Machines Corporatio, Armonk, NY, USA). All experiments are performed at least in triplicate. Data are analyzed by unpaired Student’s t-test, followed by Dunnett’s multiple comparison test (SPSS version 17.0). P values lower than 0.05 are considered significant. The interactions are calculated using combination index (CI) according to [22]: CI=IC50amix/IC50a+IC50bmix/IC50b where IC50a and IC50b are obtained from pure compounds, and IC50amix is the concentration of individual compound in the mixture that cause 50% inhibition. Obtained CI values equal, smaller, or greater than 1 indicate an additive, synergistic, or antagonistic effect, respectively.

Mushroom tyrosinase [4] = target: T1, Mushroom tyrosinase; assay: Mushroom tyrosinase inhibitory assay, L-DOPA as substrate; format: biochemical; conditions: read-out: IC50, tyrosinase activity, single compounds
Description: The reaction mixture is incubated at 37 °C for 15 min. Subsequently, 40 µL of 100 units/mL mushroom tyrosinase is added to the reaction mixtures and incubated at 37 °C for 20 min. […] The reaction mixture is incubated at 37 °C for 15 min. Subsequently, 40 µL of 5 mM L-DOPA is added to the reaction mixture and incubated at 30 °C for 20 min.
as §1
The 50% inhibition concentration (IC50) value is determined with SPSS 17.0 statistical software (International Business Machines Corporatio, Armonk, NY, USA). All experiments are performed at least in triplicate. Data are analyzed by unpaired Student’s t-test, followed by Dunnett’s multiple comparison test (SPSS version 17.0). P values lower than 0.05 are considered significant. […]

[5] = target: T2, tyrosinase activity of PIG1 cells (Homo sapiens, UniProt P14679); assay: Intracellular tyrosinase activity assay in UVB-irradiated PIG1 cells (L-DOPA oxidation); format: cell-based; conditions: 300 mJ/cm^2 UVB, 24 h, L-DOPA substrate, read-out: IC50, inhibition against tyrosinase activities
T2 construct: The intracellular tyrosinase activity of the PIG1 cells; host or cells: PIG1 immortalized human epidermal melanocytes
T2 sequence (P14679 19-529): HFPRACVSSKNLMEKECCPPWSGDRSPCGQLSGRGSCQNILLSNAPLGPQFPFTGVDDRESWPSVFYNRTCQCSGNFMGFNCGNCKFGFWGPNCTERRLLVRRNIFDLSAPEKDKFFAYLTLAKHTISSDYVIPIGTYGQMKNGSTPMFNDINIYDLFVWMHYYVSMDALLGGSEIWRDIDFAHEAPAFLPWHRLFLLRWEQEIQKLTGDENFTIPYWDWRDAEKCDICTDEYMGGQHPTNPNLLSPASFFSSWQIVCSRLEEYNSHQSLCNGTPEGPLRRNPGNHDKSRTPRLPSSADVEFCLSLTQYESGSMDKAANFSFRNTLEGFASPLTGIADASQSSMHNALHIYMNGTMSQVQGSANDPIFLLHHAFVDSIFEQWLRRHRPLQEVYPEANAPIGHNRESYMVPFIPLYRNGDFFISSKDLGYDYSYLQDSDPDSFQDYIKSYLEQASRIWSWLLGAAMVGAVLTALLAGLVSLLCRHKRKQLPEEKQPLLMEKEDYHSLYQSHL
Description: Immortalized human epidermal melanocyte cells from cell line PIG1 are obtained from Shanghai Guandao Bio-engineering Ltd. Co. (Shanghai, China). PIG1 cells are cultured at 37 °C with 5% CO2 in Medium 254 (#M-254-500, Thermo Fisher Scientific, New York, NY, USA) supplemented with human melanocyte growth supplement-2 (Thermo Fisher Scientific, New York, NY, USA) and 5% (v/v) fetal bovine serum (Thermo Fisher Scientific, New York, NY, USA).
The UVB source employed in this study is a Sigma SH4B light therapy device (Shanghai SIGMA High-tech Co., Ltd., Shanghai, China). […] UVB irradiation treatment is conducted when cells reached approximately 70% confluence according to the methods of Zeng et al. [19]. Before UVB irradiation, the supernatant is removed and replaced with PBS. […] The control group receives the same treatment as the UVB group but is not administered any drug.
PIG1 cells (1 × 10^4 cells/well) are seeded in 96-well plates and incubated for 24 h in CO2 until 70–80% confluence is reached. Subsequently, the complete medium is replaced with 100 µL of PBS, and the cells are exposed to 300 mJ/cm^2 UVB irradiation. […] The intracellular tyrosinase activity of the PIG1 cells are estimated by measuring the L-DOPA oxidation capacity according to the method of Rong et al. [21]. […] The products of the reaction are measured by reading the absorbance at 475 nm.

CC1(C)C=Cc2c(ccc3c2OC[C@@H](c2ccc(O)cc2O)C3)O1 [GLA, Glabridin]
IC50 [1]: 458 ± 0.037 µM | mode of tyrosinase inhibition (Mushroom tyrosinase [2]): non-competitive | IC50 (Mushroom tyrosinase [3]): 1500 ± 30 nM

Oc1cc(O)cc(/C=C/c2ccc(O)cc2O)c1 [OXYR, Oxyresveratrol]
IC50 [1]: 76 ± 0.07 µM | mode of tyrosinase inhibition (Mushroom tyrosinase [2]): non-competitive | IC50 (Mushroom tyrosinase [3]): 2500 ± 60 nM

CC(c1ccccc1)c1ccc(O)cc1O (centres unmarked) [PR, Phenylethylresorcinol]
IC50 [1]: 119 ± 0.07 µM | IC50 (Mushroom tyrosinase [4]): 35.5 ± 0.06 µM | mode of tyrosinase inhibition (Mushroom tyrosinase [2]): non-competitive | IC50 (Mushroom tyrosinase [3]; L-Tyrosine as substrate, read-out: IC50, tyrosinase activity, single compounds): 280 ± 30 nM

Oc1ccc(/C=C/c2cc(O)cc(O)c2)cc1 [RES, Resveratrol]
IC50 [1]: 142 ± 0.03 µM | IC50 [5]: > 100 µM | mode of tyrosinase inhibition (Mushroom tyrosinase [2]): Kcat or suicide inhibitor | IC50 (Mushroom tyrosinase [3]): 23000 ± 50 nM
